# Data: US20210315175A1, “METHODS OF MAKING FEMINIZED CANNABIS SATIVA SEED AND COMPOSITIONS THEREOF” (priority 2019, published 2021)
# What was measured:
# [1] = system: genetically female Cannabis ssp plants; experiment: 1-MCP root drench: induction of male flowers (Example 19); type: in vivo; details: 0.27 mM or 0.54 mM 1-MCP root drench, three treatments, 3 varieties
# Description: To determine if the ethylene inhibitor 1-Methylcyclopropene (1-MCP) can induce male flowers on genetically female Cannabis ssp plants, 1-MCP was applied at two different rates to 3 different varieties, with 2 replicates per treatment. The plants were treated with 1-MCP three times, with the first treatment 51 days after seeding, which was on the day plants were transitioned from a vegetative, long day photoperiod (18 h day) to a reproductive, short day photoperiod (12 h day), the second treatment was applied 7 days later and the third treatment was 8 days after the second. For the first two treatments the low rate was 0.27 mM 1-MCP and 25 ml solution per plant was immediately applied as a root drench. The high rate was 0.54 mM and similarly, 25 ml of solution was applied as a root drench. For the third treatment, the dose was doubled by applying 50 ml of the solutions described above, as the plants were larger.
# [2] = system: genetically female Cannabis ssp plants; experiment: AIB root drench: induction of male flowers and phytotoxicity (Example 21); type: in vivo
# Description: To determine if the ethylene inhibitor 2-Aminoisobutyric acid (AIB) can induce male flowers on genetically female Cannabis ssp plants, three different rates of 2-Aminoisobutyric acid (AIB) were applied to plants as a root drench, with two applications per rate. The first application occurred 79 days after seeding, which was on the day plants were transitioned from a vegetative, long day photoperiod (18 h day) to a reproductive, short day photoperiod (12 h day), and the second treatment was applied 5 days later. The stem diameter of the plants on the day of the first treatment were 9 to 10 mm and the plants ranged from 37 to 54 cm in height. The three rates tested were 50, 150 and 300 mM AIB in water, and 150 ml of solution was applied to the roots as a soil drench.
Structure (SMILES),chlorosis [1],male structures [1],"survival and male structures ([2]; 50 and 150 mM AIB, two root drenches)","phytotoxicity ([2]; after the second treatment, particularly in the highest rate)","plant survival ([2]; highest rate (300 mM AIB), two root drenches)","phytotoxicity in leaf and meristematic tissues ([2]; within 2 days of the first treatment, 50, 150 and 300 mM AIB, 150 ml root drench)"
"CC1=CC1 [1-MCP, 1-Methylcyclopropene]",mild chlorosis of growing apices,no clear or consistent male structures were observed in any of the treatments,,,,
"CC(C)(N)C(=O)O [AIB, 2-Aminoisobutyric acid]",,,survived and produced small male structures that did not produce viable pollen,more severe phototoxicity,the plant ultimately died,Mild phytotoxicity
